Reference: patent US20230365537A1, “POLO LIKE KINASE 4 INHIBITORS” (ORIC Pharmaceuticals, Inc., priority 2021, published 2023)

Columns and labels:
human recombinant PLK4 = human recombinant PLK4 (Homo sapiens (Human), UniProt O00444); assay: PLK4 Biochemical Assay (ADP-Glo); conditions: 0.5 nM PLK4, 8.0 µM ATP, 4.7 µM MBP, 6 hours at RT
In short: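 Recombinant human PLK4 (added at 1.0 nM) was preincubated 15 min at RT with compound in 50 mM HEPES pH 7.5, 10 mM MgCl2, 1 mM EGTA, 1 mM DTT, 0.01% Brij-35, 0.01% BSA. ADP formed was detected by ADP-Glo luminescence (40 min ATP depletion, 30 min detection). IC50 came from a four-parameter fit.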

CHP-134 cells = assay: CHP134 CellTiter-Glo (CTG) Assay; format: cell-based; conditions: Homo sapiens, CHP-134, 120 h, 5 days, viable cells by CellTiter-Glo
In short: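 CHP-134 cells seeded at 200 cells/well for 16 h, then given nine 1:3 serial dilutions in quadruplicate at 37° C, 5% CO2. Viable cells measured by CellTiter-Glo luminescence after 5 days; IC50 calculated from curves.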

[1] = target: human recombinant Aurora A (Homo sapiens (Human), UniProt O14965); assay: Aurora A Kinase Biochemical Assay (ADP-Glo); conditions: ratio of Aurora A IC50 to PLK4 IC50 (selectivity)
[2] = target: human recombinant Aurora B (Homo sapiens (Human), UniProt Q96GD4); assay: Aurora B Kinase Biochemical Assay (ADP-Glo); conditions: ratio of Aurora B IC50 to PLK4 IC50 (selectivity)
In short: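 Recombinant human Aurora B (20 nM in pH 7.5 HEPES buffer with MgCl2, EGTA, DTT, Brij-35, BSA) preincubated with compound 15 min at RT. ADP formed quantified by ADP-Glo luminescence after ATP depletion (40 min) and detection (30 min). IC50 from four-parameter non-linear regression.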

Sequence of human recombinant Aurora A (O14965 whole entry): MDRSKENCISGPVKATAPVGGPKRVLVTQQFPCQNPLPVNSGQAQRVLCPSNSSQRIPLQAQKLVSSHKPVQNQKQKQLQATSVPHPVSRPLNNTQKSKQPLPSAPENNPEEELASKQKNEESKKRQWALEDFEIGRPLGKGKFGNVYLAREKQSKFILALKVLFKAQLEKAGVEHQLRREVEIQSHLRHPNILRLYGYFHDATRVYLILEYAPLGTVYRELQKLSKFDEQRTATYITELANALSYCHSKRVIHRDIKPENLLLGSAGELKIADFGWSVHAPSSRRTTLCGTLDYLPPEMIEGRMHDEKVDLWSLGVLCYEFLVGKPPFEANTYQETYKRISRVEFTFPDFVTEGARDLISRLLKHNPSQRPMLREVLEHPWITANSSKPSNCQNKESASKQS
Sequence of human recombinant PLK4 (O00444 whole entry): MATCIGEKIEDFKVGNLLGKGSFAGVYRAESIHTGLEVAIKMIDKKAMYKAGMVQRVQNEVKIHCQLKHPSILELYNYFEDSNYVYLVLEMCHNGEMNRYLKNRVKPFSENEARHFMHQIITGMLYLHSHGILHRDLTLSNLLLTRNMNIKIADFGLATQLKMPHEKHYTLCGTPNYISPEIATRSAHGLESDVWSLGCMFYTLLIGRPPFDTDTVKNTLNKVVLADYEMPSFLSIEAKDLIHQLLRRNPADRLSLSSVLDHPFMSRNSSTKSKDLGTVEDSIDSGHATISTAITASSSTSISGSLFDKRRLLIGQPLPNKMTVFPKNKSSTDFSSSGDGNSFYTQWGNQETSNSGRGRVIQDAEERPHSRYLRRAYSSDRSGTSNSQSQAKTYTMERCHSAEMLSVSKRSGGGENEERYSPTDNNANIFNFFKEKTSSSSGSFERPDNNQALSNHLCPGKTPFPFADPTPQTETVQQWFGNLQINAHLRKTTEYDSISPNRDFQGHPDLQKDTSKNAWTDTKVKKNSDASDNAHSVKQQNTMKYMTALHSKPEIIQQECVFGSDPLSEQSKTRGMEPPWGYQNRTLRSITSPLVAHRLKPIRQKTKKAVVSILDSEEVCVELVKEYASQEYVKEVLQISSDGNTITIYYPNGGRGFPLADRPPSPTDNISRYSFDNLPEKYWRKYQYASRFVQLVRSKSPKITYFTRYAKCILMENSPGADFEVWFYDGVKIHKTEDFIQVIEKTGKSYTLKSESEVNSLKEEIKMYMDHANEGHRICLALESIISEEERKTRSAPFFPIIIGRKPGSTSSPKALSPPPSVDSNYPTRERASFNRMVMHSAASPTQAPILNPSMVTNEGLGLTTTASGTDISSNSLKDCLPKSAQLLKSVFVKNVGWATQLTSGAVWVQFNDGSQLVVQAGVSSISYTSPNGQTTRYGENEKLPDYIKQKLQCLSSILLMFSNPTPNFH
Sequence of human recombinant Aurora B (Q96GD4 whole entry): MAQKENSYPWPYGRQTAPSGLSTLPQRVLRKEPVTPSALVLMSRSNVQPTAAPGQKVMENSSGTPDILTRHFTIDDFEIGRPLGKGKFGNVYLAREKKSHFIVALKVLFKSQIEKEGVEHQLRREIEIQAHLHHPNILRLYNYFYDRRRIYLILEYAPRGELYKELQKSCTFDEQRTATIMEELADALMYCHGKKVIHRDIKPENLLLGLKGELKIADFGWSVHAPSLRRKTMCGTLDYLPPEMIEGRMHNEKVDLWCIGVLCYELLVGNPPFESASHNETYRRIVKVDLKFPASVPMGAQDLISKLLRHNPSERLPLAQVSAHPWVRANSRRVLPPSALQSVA

SMILES	IC50 (human recombinant PLK4)	IC50 (CHP-134 cells)	[Aurora A IC50 (nM)]/[PLK4 IC50 (nM)] [1]	[Aurora B IC50 (nM)]/[PLK4 IC50 (nM)] [2]
COc1ccc2c(c1)[C@]1(C[C@H]1c1ccc3c(Nc4ncc(C(=O)N5CCC5)cc4OC)n[nH]c3c1)C(=O)N2 [Example 263, (1R,2S)-2-(3-{[5-(azetidine-1-carbonyl)-3-methoxypyridin-2-yl]amino}-1H-indazol-6-yl)-5′-methoxyspiro[cyclopropane-1,3′-indol]-2′(1′H)-one]	0.00065 µM	0.599 µM	1133.6923	181.6923
COc1ccc2c(c1)[C@]1(C[C@H]1c1ccc3c(Nc4nc(C)nc(N5CC(O)C5)c4OC)n[nH]c3c1)C(=O)N2 [Example 73, (1R,2S)-2-(3-{[6-(3-hydroxyazetidin-l-yl)-5-methoxy-2-methylpyrimidin-4-yl]amino}-1H-indazol-6-yl)-5′-methoxyspiro[cyclopropane-1,3′-indol]-2′(1′H)-one]	0.00705 µM	10 µM	3290.277	346.7708
COc1ccc2c(c1)[C@]1(C[C@H]1c1ccc3c(Nc4cc(OC)c(S(N)(=O)=O)cc4OC)n[nH]c3c1)C(=O)N2 [Example 212, 2,5-Dimethoxy-4-({6-[(1R,2S)-5′-methoxy-2′-oxo-l′,2′-dihydrospiro[cyclopropane-1,3′-indol]-2-yl]-1H-indazol-3-yl}amino)benzene-1-sulfonamide]	0.00159 µM	0.161 µM	353.1230	280
CCP(=O)(CC)c1ccc(Nc2n[nH]c3cc([C@@H]4C[C@@]45C(=O)Nc4ccc(OC)cc45)ccc23)c(OC)n1 [Example 257, (1R,2S)-2-(3-{[6-(diethylphosphoryl)-2-methoxypyridin-3-yl]amino}-1H-indazol-6-yl)-5′-methoxyspiro[cyclopropane-1,3′-indol]-2′(1′H)-one]	0.00391 µM	1.59 µM	1259.8465	324.5524
COc1ccc2c(c1)[C@]1(C[C@H]1c1ccc3c(Nc4ncnc(N5CCOCC5)c4OC)n[nH]c3c1)C(=O)N2 [Example 11, (1R,2S)-5′-Methoxy-2-(3-{[5-methoxy-6-(morpholin-4-yl)pyrimidin-4-yl)amino}-1H-indazol-6-yl)spiro[cyclopropane-1,3′-indol]-2′(1′H)-one]	0.00488 µM	2.95 µM	3277.276	77.87
COc1ccc2c(c1)[C@]1(C[C@H]1c1ccc3c(Nc4nc(OC)ncc4Cl)n[nH]c3c1)C(=O)N2 [Example 23, (1R,2S)-2-{3-[(5-chloro-2-methoxypyrimidin-4-yl)amino]-1H-indazol-6-yl}-5′-methoxyspiro[cyclopropano-1,3′-indol]-2′(1′H)-one]	0.00505 µM	0.0459 µM	215.5309	170.7409
COc1ccc2c(c1)[C@]1(C[C@H]1c1ccc3c(Nc4nc(N5CCC(F)(F)CC5)ncc4OC)n[nH]c3c1)C(=O)N2 [Example 189, (1R,2S)-2-(3-{[2-(4,4-difluornpiperidin-1-yl)-5-methoiypyrimidin-4-yl]amino}-1H-indazol-6-yl)-5′-methoxyspiro[cyclopropane-1,3′-indol]-2′(1′H)-one]	0.00104 µM	0.112 µM	383.7321	514.5455
CNC(=O)c1ccc(OC)c(Nc2n[nH]c3cc([C@@H]4C[C@@]45C(=O)Nc4ccc(OC)cc45)ccc23)c1 [Example 177, 4-methoxy-3-({6-[(1R,2S)-5′-methoxy-2′-oxo-1′,2′-dihydrospiro[cyclopropane-1,3′-indol]-2-yl]-1H-indazol-3-yl}amino)-N-methylbenzamide]	0.00426 µM	3.68 µM	11750.8813	11750.8813
CCS(=O)(=O)c1cnc(Nc2n[nH]c3cc([C@@H]4C[C@@]45C(=O)Nc4ccc(OC)cc45)ccc23)c(OC)c1 [Example 228, (1R,2S)-2-(3-{[5-(Ethanesulfonyl)-3-methoxypyridin-2-yl]amino}-1H-indazol-6-yl)-5′-methoxyspiro[cyclopropane-1,3′-indol]-2′(1′H)-one]	0.00135 µM	0.18 µM	813.6599	340.4602
COc1ccc2c(c1)[C@]1(C[C@H]1c1ccc3c(Nc4ncnc(N5CCS(=O)(=O)CC5)c4OC)n[nH]c3c1)C(=O)N2 [Example 54, (1R,2S)-2-(3-((6-(1,1-dioxidothiomorpholino)-5-methoxypyrimidin-4-yl)amino)-1H-indazol-6-yl)-5′-methoxyspiro[cydopropane-1,3′-indolin]-2′-one]	0.0332 µM	10 µM	1504.212	117.2684
COc1ccc2c(c1)[C@]1(C[C@H]1c1ccc3c(Nc4ccc(P(C)(C)=O)nc4OC)n[nH]c3c1)C(=O)N2 [Example 205, (1R,2S)-2-(3-{[6-(dimethylphosphoryl)-2-methoxypyridin-3-yl]amino}-1H-indazol-6-yl)-5′-methoxyspiro[cyclopropane-1,3′-indol]-2′(1′H)-one]	0.00164 µM	3.45 µM	737.5152	235.7491
COc1ccc2c(c1)[C@]1(C[C@H]1c1ccc3c(Nc4nc(N5CCC5)ncc4OC)n[nH]c3c1)C(=O)N2 [Example 157, (1R,2S)-2-(3-{[2-(azetidin-1-yl)-5-methoxypyrimidin-4-yl]amino}-1H-indazol-6-yl)-5′-methoxyspiro[cyclopropane-1,3′-indol]-2′(1′H)-one]	0.00195 µM	0.288 µM	510.6317	303.9548
CCc1ncc(OC)c(Nc2n[nH]c3cc([C@@H]4C[C@@]45C(=O)Nc4ccc(OC)cc45)ccc23)n1 [Example 160, (1R,2S)-2-{3-[(2-ethyl-5-methoxypyrimidin-4-yl)amino]-1H-indazol-6-yl}-5′-methoxyspiro[cyclopropane-1,3′-indol]-2′(1′H)-one]	0.00193 µM	0.31 µM	545.5487	149.5859
CCOc1cnc(SC)nc1Nc1n[nH]c2cc([C@@H]3C[C@@]34C(=O)Nc3ccc(OC)cc34)ccc12 [Example 195, (1R,2S)-2-(3-{[5-ethoxy-2-(methylsulfanyl)pyrimidin-4-yl]amino)-1H-indazol-6-yl)-5′-methoxyspiro[cyclopropane-1,3′-indol]-2′(1′H)-one]	0.00156 µM	0.16 µM	3459.6154	740.3846
COc1ccc2c(c1)[C@]1(C[C@H]1c1cc(F)c3c(Nc4nc(SC)ncc4OC)n[nH]c3c1)C(=O)N2 [Example 186, (1R,2S)-2-(4-fluoro-3-{[5-methoxy-2-(methylsulfanyl)pyrimidin-4-yl]amino}-1H-indazol-6-yl)-5′-methoxyspiro[cyclopropane-1,3′-indol]-2′(1′H)-one]	0.00178 µM	0.537 µM	641.9337	232.5464
COc1ccc2c(c1)[C@]1(C[C@H]1c1ccc3c(Nc4nc(C)ncc4OC)n[nH]c3c1)C(=O)N2 [Example 87, (1R,2S)-5′-methozy-2-{3-[(5-methoxy-2-methylpyrimidin-4-yl)amino]-1H-indazol-6-yl}spiro[cyclopropane-1,3′-indol]-2′(1′H)-one]	0.00158 µM	0.235 µM	973.4177	133.9241
COc1ccc2c(c1)[C@]1(C[C@H]1c1ccc3c(Nc4ncnc(N5CCOCC5)c4OC(F)F)n[nH]c3c1)C(=O)N2 [Example 109, (1R,2S)-2-(3-{[5-(difluoromethoxy)-6-(morpholin-4-yl)pyrimidin-4-yl]amino}-lH-indazol-6-yl)-5′-methoxyspiro[cyclopropane-1,3′-indol]-2′(1′H)-one]	0.00676 µM	1.87 µM	50000	11070
COc1ccc2c(c1)[C@]1(C[C@H]1c1ccc3c(Nc4nc(N5CCC(F)(F)C5)ncc4OC)n[nH]c3c1)C(=O)N2 [Example 170, (1R,2S)-2-(3-{[2-(3,3-difluoropyrrolidin-1-yl)-5-methoxypyrimidin-4-yl]amino}-1H-indazol-6-yl)-5′-methoxyspiro[cyclopropane-1,3′-indol]-2′(1′H)-one]	0.00136 µM	0.326 µM	694.1090	587.9234
COc1ccc2c(c1)[C@]1(C[C@H]1c1ccc3c(Nc4nc(C#N)ncc4OC)n[nH]c3c1)C(=O)N2 [Example 172, 5-methoxy-4-({6-[(1R,2S)-5′-methoxy-2′-oxo-1′,2′-dihydrospiro[cyclopropane-1,3′-indol]-2-yl]-1H-indazol-3-yl}amino)pyrimidine-2-carbonitrile]	0.00409 µM	1.26 µM	324.94	202.96
